# Results published in ChEMBL document CHEMBL3991601, “The target landscape of clinical kinase drugs” (Science, 2017).
# Activity calls are given as the source filed them. For most assays here, no stated cut-off is given here; in the data, actives have a measured Kd and inactives only a lower limit.
# What was measured:
# Activin receptor type-1B = biological target: T1, Activin receptor type-1B (Homo sapiens, UniProt P36896)
# T1 sequence (P36896 whole entry): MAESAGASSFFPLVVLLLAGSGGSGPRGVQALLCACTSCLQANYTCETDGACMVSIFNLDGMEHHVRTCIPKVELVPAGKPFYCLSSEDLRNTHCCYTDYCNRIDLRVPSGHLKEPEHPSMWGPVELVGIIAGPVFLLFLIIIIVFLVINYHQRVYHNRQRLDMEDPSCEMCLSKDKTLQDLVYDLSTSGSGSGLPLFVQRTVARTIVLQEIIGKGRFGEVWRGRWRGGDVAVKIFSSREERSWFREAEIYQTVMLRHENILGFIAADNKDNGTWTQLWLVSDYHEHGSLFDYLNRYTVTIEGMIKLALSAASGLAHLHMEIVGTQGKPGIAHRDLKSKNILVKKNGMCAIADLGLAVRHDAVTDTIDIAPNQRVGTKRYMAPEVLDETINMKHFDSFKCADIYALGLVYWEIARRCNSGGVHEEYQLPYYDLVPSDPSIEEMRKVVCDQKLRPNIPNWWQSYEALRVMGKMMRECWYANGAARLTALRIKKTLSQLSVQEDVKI
# [1] = biological target: T2, ATP-dependent RNA helicase DDX42 (Homo sapiens, UniProt Q86XP3)
# T2 sequence (Q86XP3 whole entry): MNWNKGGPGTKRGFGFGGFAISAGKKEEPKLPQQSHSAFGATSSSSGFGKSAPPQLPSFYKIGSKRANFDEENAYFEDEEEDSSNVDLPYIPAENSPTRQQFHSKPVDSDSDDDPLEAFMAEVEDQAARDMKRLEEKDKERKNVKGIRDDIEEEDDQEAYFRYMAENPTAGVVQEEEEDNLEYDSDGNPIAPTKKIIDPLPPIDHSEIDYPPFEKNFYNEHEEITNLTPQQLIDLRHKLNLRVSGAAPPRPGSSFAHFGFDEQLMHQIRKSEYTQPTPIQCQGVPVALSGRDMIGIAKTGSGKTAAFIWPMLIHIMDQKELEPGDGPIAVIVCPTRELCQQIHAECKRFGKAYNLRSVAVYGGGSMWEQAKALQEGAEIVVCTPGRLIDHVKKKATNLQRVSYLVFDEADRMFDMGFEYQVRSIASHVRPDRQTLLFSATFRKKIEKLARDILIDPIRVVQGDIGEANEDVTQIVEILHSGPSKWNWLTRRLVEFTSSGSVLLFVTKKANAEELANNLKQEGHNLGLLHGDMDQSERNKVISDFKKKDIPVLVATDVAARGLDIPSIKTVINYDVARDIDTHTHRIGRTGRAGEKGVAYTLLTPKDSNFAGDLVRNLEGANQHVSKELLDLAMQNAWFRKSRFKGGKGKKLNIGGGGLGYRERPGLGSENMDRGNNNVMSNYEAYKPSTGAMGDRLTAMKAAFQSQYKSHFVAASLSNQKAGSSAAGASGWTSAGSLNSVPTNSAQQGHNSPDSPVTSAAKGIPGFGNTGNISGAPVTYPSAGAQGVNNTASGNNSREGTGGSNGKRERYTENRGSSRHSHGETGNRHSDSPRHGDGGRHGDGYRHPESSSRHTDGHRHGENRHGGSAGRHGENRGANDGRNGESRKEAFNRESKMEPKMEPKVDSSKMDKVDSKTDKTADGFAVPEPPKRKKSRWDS
# [2] = biological target: T3, Dual specificity mitogen-activated protein kinase kinase 5 (Homo sapiens, UniProt Q13163)
# T3 sequence (Q13163 whole entry): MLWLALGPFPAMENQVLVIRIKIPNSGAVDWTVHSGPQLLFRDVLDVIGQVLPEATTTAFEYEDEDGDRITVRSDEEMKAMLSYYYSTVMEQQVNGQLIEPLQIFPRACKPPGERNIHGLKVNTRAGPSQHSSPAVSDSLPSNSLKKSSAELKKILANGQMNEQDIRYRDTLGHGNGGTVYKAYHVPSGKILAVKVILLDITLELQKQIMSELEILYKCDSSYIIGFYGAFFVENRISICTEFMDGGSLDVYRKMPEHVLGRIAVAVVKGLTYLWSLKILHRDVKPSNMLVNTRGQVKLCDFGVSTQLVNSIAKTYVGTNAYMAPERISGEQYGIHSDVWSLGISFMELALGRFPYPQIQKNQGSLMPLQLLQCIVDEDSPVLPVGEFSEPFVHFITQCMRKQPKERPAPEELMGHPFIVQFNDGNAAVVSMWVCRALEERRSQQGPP
# [3] = biological target: T4, Serine/threonine-protein kinase ULK1 (Homo sapiens, UniProt O75385)
# T4 sequence (O75385 whole entry): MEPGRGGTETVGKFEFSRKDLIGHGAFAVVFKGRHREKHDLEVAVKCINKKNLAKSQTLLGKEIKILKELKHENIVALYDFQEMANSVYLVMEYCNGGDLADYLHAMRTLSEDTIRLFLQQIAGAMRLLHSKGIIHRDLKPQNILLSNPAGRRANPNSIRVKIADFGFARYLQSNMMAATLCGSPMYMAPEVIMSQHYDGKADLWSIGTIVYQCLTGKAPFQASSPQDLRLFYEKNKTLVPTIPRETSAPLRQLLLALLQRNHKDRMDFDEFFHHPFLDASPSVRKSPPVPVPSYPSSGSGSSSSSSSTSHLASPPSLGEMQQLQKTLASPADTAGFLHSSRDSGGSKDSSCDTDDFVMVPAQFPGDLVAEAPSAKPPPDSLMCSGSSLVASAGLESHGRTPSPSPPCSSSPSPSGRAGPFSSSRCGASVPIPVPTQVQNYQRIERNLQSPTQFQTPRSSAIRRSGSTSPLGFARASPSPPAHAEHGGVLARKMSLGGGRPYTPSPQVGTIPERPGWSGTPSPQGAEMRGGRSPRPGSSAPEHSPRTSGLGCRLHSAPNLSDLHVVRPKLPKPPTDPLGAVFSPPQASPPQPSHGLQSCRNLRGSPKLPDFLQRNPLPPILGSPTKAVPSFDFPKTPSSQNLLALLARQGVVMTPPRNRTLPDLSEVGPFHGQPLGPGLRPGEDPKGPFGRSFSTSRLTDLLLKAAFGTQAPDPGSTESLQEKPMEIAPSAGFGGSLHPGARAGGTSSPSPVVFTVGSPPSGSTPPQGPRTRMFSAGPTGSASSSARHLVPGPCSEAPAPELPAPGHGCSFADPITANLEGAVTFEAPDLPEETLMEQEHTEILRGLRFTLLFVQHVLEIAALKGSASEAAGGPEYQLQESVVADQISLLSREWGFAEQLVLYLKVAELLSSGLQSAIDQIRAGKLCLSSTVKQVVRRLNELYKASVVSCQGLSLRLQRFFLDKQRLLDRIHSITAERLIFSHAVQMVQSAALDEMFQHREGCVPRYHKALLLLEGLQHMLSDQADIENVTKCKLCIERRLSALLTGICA
SMILES,Kd (Activin receptor type-1B),Kd [1],Kd [2],Kd [3]
N[C@@H]1CCCN(c2c(/C=C3\SC(=O)NC3=O)cccc2-c2ccccc2)C1,> 30 µM (inactive),> 30 µM (inactive),> 30 µM (inactive),> 30 µM (inactive)
Cc1ccc(NC(=O)c2ccc(CN3CC[C@H](N(C)C)C3)c(C(F)(F)F)c2)cc1Nc1nccc(-c2cncnc2)n1 [BAFETINIB],> 30 µM (inactive),> 30 µM (inactive),11.4 µM (active),> 30 µM (inactive)
O=C(Nc1ccc(-c2ccnc(Nc3ccc(N4CCOCC4)cc3)n2)cc1)C1CCCN1 (centres undefined) [XL-019],> 30 µM (inactive),> 30 µM (inactive),> 30 µM (inactive),> 30 µM (inactive)
O=C(c1ccc(F)c(F)c1Nc1ccc(I)cc1F)N1CC(O)([C@@H]2CCCCN2)C1 [COBIMETINIB],> 30 µM (inactive),> 30 µM (inactive),> 30 µM (inactive),> 30 µM (inactive)
Cc1cc(-c2cc(O)ccc2Cl)cc2nnc(Nc3ccc(OCCN4CCCC4)cc3)nc12,0.001 µM (active),> 30 µM (inactive),> 30 µM (inactive),> 30 µM (inactive)
Cc1cc([C@@H](C)Nc2ccccc2C(=O)O)c2nc(N3CCOCC3)cc(=O)n2c1 [AZD-6482],> 30 µM (inactive),> 30 µM (inactive),> 30 µM (inactive),> 30 µM (inactive)
